Data published in patent US11376249B2 (priority 2017, dated 2022).

Experiments:
[1] = Rat tolerance/dependence study (28 day)
5-HT2 receptor = system: 5-HT2 receptor; design: species or system mice; settings: mouse, in vivo, po
Mu opiate receptor = Mu opiate receptor (Homo sapiens, UniProt P35372); assay type: binding
[2] = Mouse marble-burying study (OCD model); assay type: in vivo, mice; settings: 20 mg/kg intraperitoneal just prior to test
Description: The marble burying test is used to measure repetitive and anxiety-related behavior in rodents. It is based on the observation that rats and mice will bury either harmful or harmless objects in their bedding, and it has been used as an animal model to measure the effect of pharmacological interventions in treatment of repetitive behavior disorders, such as OCD.
MPEP is a selective mGluR5 glutamate receptor antagonist. […] Mice in groups (1) are orally administered the vehicle, and mice in group (4) are given an intraperitoneal injection of MPEP just prior to the start of the test.
The test is conducted in rectangular cages with 4-5 cm of wood chip bedding in a room with the window shades lowered and the door closed to minimize distractions. Fifteen clean marbles are evenly spaced on top of the bedding in three rows of five marbles. One mouse is placed in each cage. The mouse and cage is left undisturbed for 30 minutes. At the end of the test, the mouse is removed and the number of marbles buried to at least ⅔ of their depth is counted.

[3] = system: NR2B phosphorylation at Tyr1472; test: CNS phosphoprotein profile, NR2B; assay type: in vivo, mice; settings: 3 mg/kg, 30-60 minutes, nucleus accumbens
Protocol: (§1) A comprehensive molecular phosphorylation study is also carried out to examine the central nervous system (CNS) profile of the compounds of Example 1 and Example 3. The extent of protein phosphorylation for selected key central nervous system proteins is measured in mice nucleus accumbens.
(§2) Mice were killed 30 minutes to 2 hours post-injection by focused microwave cranial irradiation, which preserves brain phosphoprotein as it exists at the time of death. The nucleus accumbens was then dissected from each mouse brain, sliced and frozen in liquid nitrogen. Samples were further prepared for phosphoprotein analysis via SDS-PAGE electrophoresis followed by phosphoprotein-specific immunoblotting, as described in Zhu H, et al., Brain Res. 2010 Jun. 25; 1342:11-23. Phosphorylation at each site was quantified, normalized to total levels of the protein (non-phosphorylated), and expressed as percent of the level of phosphorylation in vehicle-treated control mice.

[4] = system: ERK2 phosphorylation at Thr183 and Tyr185; test: CNS phosphoprotein profile, ERK2; assay type: in vivo, mice; settings: 3 mg/kg, nucleus accumbens
Protocol: as §1, §2

[5] = system: GluR1 phosphorylation at Ser845; test: CNS phosphoprotein profile, GluR1; assay type: in vivo, mice; settings: 3 mg/kg, nucleus accumbens
Protocol: as §1, §2

[6] = system: tyrosine hydroxylase phosphorylation at Ser40; test: CNS phosphoprotein profile, TH; assay type: in vivo, mice; settings: 3 mg/kg, 30 or 60 minutes, nucleus accumbens
Protocol: as §1, §2

D2 = D2 (Homo sapiens, UniProt P14416); test: biochemical; settings: read-out: inhibition D2
D1 = D1 (Homo sapiens, UniProt P21728); test: biochemical; settings: read-out: inhibition D1
Chain of D1 (P21728 whole entry): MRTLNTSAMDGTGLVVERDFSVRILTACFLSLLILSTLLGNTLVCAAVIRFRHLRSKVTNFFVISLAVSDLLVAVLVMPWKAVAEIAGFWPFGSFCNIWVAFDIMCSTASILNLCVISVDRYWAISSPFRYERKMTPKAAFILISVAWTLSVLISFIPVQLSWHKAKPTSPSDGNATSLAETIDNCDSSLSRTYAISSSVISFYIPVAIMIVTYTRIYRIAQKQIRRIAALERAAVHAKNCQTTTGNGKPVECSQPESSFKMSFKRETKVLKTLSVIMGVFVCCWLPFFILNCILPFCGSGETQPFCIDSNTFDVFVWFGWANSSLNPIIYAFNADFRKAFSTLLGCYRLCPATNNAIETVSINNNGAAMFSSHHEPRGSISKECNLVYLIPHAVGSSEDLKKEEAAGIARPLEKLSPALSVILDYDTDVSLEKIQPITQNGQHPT

Chain of D2 (P14416 whole entry): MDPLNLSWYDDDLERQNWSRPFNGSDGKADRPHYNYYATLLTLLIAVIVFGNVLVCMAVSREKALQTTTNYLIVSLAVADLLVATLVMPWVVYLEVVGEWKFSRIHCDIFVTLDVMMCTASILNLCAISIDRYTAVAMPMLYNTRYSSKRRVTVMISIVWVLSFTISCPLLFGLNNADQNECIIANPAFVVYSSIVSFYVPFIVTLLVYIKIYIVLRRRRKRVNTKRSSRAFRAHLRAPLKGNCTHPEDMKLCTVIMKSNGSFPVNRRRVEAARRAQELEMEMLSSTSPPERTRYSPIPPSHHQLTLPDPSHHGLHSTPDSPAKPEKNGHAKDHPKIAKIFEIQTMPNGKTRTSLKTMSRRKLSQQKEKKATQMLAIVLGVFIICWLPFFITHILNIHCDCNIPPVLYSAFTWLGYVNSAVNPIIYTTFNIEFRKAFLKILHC
Chain of Mu opiate receptor (P35372 whole entry): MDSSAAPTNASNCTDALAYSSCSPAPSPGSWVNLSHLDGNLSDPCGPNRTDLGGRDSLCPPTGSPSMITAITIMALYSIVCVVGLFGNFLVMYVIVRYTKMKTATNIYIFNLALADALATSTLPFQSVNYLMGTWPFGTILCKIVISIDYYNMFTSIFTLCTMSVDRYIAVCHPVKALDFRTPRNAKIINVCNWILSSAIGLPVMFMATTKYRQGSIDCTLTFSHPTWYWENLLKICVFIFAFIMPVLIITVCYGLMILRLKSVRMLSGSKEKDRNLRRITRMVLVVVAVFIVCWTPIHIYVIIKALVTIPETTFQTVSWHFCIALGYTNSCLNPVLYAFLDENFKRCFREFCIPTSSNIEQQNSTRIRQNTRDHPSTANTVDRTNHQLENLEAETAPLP

CN1CC[C@]23c4c5ccc(O)c4O[C@H]2[C@@H](O)C=C[C@H]3[C@H]1C5 [Morphine, reference compound]
tolerance and dependence ([1]; 30 mg/kg orally twice per day): clear signs of tolerance and dependence

O=C1CN2c3c(cccc3[C@@H]3CN(CCCOc4ccc(F)cc4)CC[C@@H]32)N1 [Example 3, (6bR,10aS)-8-(3-(4-fluorophenoxy)propyl)-6b,7,8,9,10,10a-hexahydro-1H-pyrido[3′,4′:4,5]pyrrolo[1,2,3-de]quinoxalin-2(3H)-one]
predominant behavioral and physical effects ([1]; 0.3 mg/kg, dosing phase): hunched posture, Straub tail and piloerection
tolerance ([1]; 0.3 and 3 mg/kg s.c., 28 days): does not produce tolerance
effect on body weight, food and water intake or body temperature ([1]; 0.3 and 3 mg/kg s.c., on-dose or withdrawal phase): no significant effect
EC50 for reducing DOI-induced head twitches (5-HT2 receptor): 0.44 mg/kg

CN1CCN2c3c(cccc31)[C@@H]1CN(CCCC(=O)c3ccc(F)cc3)CC[C@@H]12 [Formula A, reference compound]
activity at the Mu opiate receptor (Mu opiate receptor): not active

CN1CCN2c3c(cccc31)[C@@H]1CN(CCCC(O)c3ccc(F)cc3)CC[C@@H]12 (stereo partly shown) [Formula B, reference compound]
EC50 for reducing DOI-induced head twitches (5-HT2 receptor): 0.31 mg/kg

Cc1cccc(C#Cc2ccccc2)n1 [MPEP, 2-methyl-6-(phenylethynyl)pyridine]
Marbles Buried [2]: 0.2

O=C1CN2c3c(cccc3[C@@H]3CN(CCCC(=O)c4ccc(F)cc4)CC[C@@H]32)N1 [Example 1, 4-((6bR,10aS)-2-oxo-2,3,6b,9,10,10a-hexahydro-1H,7H-pyrido[3′,4′:4,5]pyrrolo[1,2,3-de]quinoxalin-8-yl)-1-(4-fluoro-phenyl)-butan-1-one]
effect on NR2B phosphorylation at Tyr1472 [3]: neither the compound of Example 1 nor of Example 3 has a significant effect
EC50 for reducing DOI-induced head twitches (5-HT2 receptor): 0.23 mg/kg
ERK2 phosphorylation at Thr183 and Tyr185 [4]: slight decrease
GluR1 phosphorylation at Ser845 [5]: slight increase
effect on tyrosine hydroxylase phosphorylation at Ser40 [6]: neither the compound of Example 1 nor of Example 3 has a significant effect
inhibition at […] (D2): 47%

O=C1CN2c3c(cccc3[C@@H]3CN(CCCC(O)c4ccc(F)cc4)CC[C@@H]32)N1 (stereo partly drawn) [Example 2, 4-((6bR,10aS)-2-oxo-2,3,6b,9,10,10a-hexahydro-1H,7H-pyrido[3′,4′:4,5]pyrrolo[1,2,3-de]quinoxalin-8-yl)-1-(4-fluoro-phenyl)-butan-1-ol]
inhibition at 0.1 µM (D1): 13%
inhibition at […] (D2): 11%
